Test system: male Syrian hamsters, ear sebaceous glands
Test: Animal model for inhibition of sebum production (hamster ear, HPLC of sebum lipids)
Format: in vivo, Syrian hamster
Details: 4 weeks; for % Reduction in CE (cholesterol ester) / % Reduction in WE (wax ester): 3-w/v % topical to ears twice daily, five days a week, difference from vehicle control; for Sum CE + WE: summation of % reduction in CE and WE, 3-w/v % topical
Experimental: Luderschmidt et al describes an animal model for testing whether compounds are capable of modulating sebum secretion. Arch. Derm. Res. 258, 185-191 (1977). This model uses male Syrian hamsters, whose ears contain sebaceous glands. The products of Example 1 and 4 were screened in this model.
Testing for sebum inhibition was carried out in the following manner. Male Syrian hamsters aged 9 to 10 weeks were introduced into the laboratory environment and acclimated for 2 weeks prior to use in the study. Each group consisted of 5 animals and run in parallel with vehicle and positive controls. Prior to administration, 30 mg of each compound was dissolved in 1 mL of a solvent consisting of transcutanol, ethanol, and propylene glycol (20/60/20% v/v) to achieve a final concentration of 3-w/v %.
Animals were dosed topically twice daily, five days a week, for 4 weeks. Each dose consisted of 25 micro liters of vehicle control or drug. The dose was applied to the ventral surfaces of both the right and left ears. All animals were sacrificed approximately 18-24 hours after the final dose. The right ears were collected from each animal and used for sebum analysis.
The ears were prepped for HPLC analysis in the following manner. One 8 mm distal biopsy punch was taken, just above the anatomical “V” mark in the ear to normalize the sample area. The punch was pulled apart. The ventral biopsy surface (the area where the topical dose was directly applied to the sebaceous glands) was retained for testing and the dorsal surface of the biopsy punch was discarded.
Tissue samples were blown with N2 gas and stored at −80° C. under nitrogen until HPLC analysis. In addition to ear samples, an aliquot of each drug and vehicle (at least 250 ul) was also stored at −80° C. for inclusion in the HPLC analysis.
HPLC analysis was carried out on an extract of the tissue sample. Tissue samples were contacted with 3 ml of solvent (a 4:1 admixture of 2,2,4-trimethylpentane and isopropyl alcohol). The mixture was shaken for 15 minutes and stored overnight at room temperature, protected from light. The next morning 1 milliliter of water was added to the sample and shaken for 15 minutes. The sample was then centrifuged at approximately 1500 rpm for 15 minutes. Two ml of the organic phase (top layer) was transferred to a glass vial, dried at 37° C., under nitrogen, for approximately 1 hour, and then lyophilized for approximately 48 hours. The samples were then removed from the lyophilizer and each vial was reconstituted with 600 μl of solvent A (trimethylpentane/tetrahydrofuran (99:1). The samples were then recapped and vortexed for 5 minutes.
200 μl of each sample was then transferred to a pre-labeled 200 μl HPLC vial with 200 μL glass inserts. The HPLC vials were placed in the autosampler tray for the Agilent 1100 series HPLC unit. The Agilent 1100 HPLC system consisted of a thermostated autosampler, a quarternary pump, a column heater, and an A/D interface module. All components were controlled by Agilent ChemStation software. A Waters Spherisorb S3W 4.6×100 mm analytical column was maintained at 30° C. by the Agilent column heater unit. The HPLC autosampler was programmed to maintain the sample temperature at 20 C throughout the run.
10 uL of each sample was injected in triplicate into the column. Two solvents were used for the solvent gradient. Solvent A was an admixture of trimethylpentane and tetrahydrofuran (99:1). Solvent B was ethylacetate. The gradient utilized is described in the table below: […]
The Sedex 75 Evaporative Light Scattering Detector (ELSD) was operated at 45° C. with a gain of 5, and N2 pressure maintained at 3.1 bar. Analog signal obtained by the instrument was sent to the Agilent A/D interface module where it was converted to a digital output. The conversion was based on a 10000-mAU/volt set point and the data rate was set at 10 Hz (0.03 min). The resulting digital output was then feed into the Agilent ChemStation software for integration of the peak area. […]

## CC(C)CC(Oc1ccc(C#N)c(C(F)(F)F)c1)C(=O)NCc1ccccc1 (stereo not drawn) [Example 1, 2-(4-Cyano-3-trifluoromethyl-phenoxy)-4-methyl-pentanoic acid benzylamide]
  % Reduction in CE (cholesterol ester): 32%
  % Reduction in WE (wax ester): 52%
  Sum CE + WE: 84%

## CCCC(Oc1ccc(C#N)c(C(F)(F)F)c1)C(=O)NCc1ccccc1 (stereo not drawn) [Example 4, 2-(4-Cyano-3-trifluoromethyl-phenoxy)-pentanoic acid benzylamide]
  % Reduction in CE (cholesterol ester): 15%
  % Reduction in WE (wax ester): 31%
  Sum CE + WE: 46%

Source: US7507860B2 (Pfizer Inc., priority 2004, dated 2009)
